Results from patent publication US6339146B1, “Cycloalkylated beta-glucoside” (Nikon Shokuhin Kako Co., Ltd., priority 1999, dated 2002).

Experiments:
[1] = tested on: β-glucosidase derived from Almond; experiment: β-Glucosidase inhibition test (pNP-β-Glc hydrolysis); type: biochemical; details: for Activity ratio (pNP-β-glucosidase activity): Almond enzyme, cycloalkyl glucoside 1 mM (table title), no inhibitor = 1.00, pH 5.0, 40° C., 10 minutes
Protocol: (§1) β-Glucosidase inhibition test was performed as follows. 10 mM p-nitrophenyl-β-glucoside (100 μl, abbreviated as pNP-β-Glc hereinafter), 1 M sodium acetate buffer (pH 5.0, 50 μl), pure water, and 100 mM inhibitor (10 μl) were taken into a short test tube so that the mixture should have a total volume of […], and preincubated at 40° C. for 5 minutes. After the incubation, the obtained mixture was added with 50 μl of enzyme solution diluted to a suitable concentration, and allowed to react at 40° C. After 10 minutes, the enzyme was inactivated by adding 500 μl of 1 M sodium carbonate to the obtained reaction mixture, and the absorbance at 405 nm was measured and used for calculation of the amount of free p-nitrophenol. As the inhibitor, cyclopropylmethyl-β-glucoside (CPAM-β-Glc), cyclopentyl-β-glucoside (CPE-β-Glc), and cyclopentylmethyl-β-glucoside (CPEM-β-Glc) all prepared by the methods of Examples 1 and 2were used. As the β-glucosidase, chromatographically purified preparations derived from Aspergillus niger, Trichoderma viride, and Almond (all from SIGMA) were used.

[2] = target: β-glucosidase derived from Aspergillus niger (Aspergillus niger, UniProt A2RAL4); experiment: as above; type: biochemical; details: for Activity ratio (pNP-β-glucosidase activity): cycloalkyl glucoside 1 mM (table title), no inhibitor = 1.00, pH 5.0, 40° C., 10 minutes
Protocol: as §1

[3] = target: β-glucosidase derived from Trichoderma viride (Trichoderma viride, UniProt Q6UJY0); experiment: as above; type: biochemical; details: T. viride enzyme
Protocol: as §1

[4] = tested on: rose petal crude enzyme solution (pNP-β-Glc activity); experiment: Inhibition test for rose crude enzyme (pNP-β-Glc activity); type: biochemical, Rosa gybrida CV. Wendy
Protocol: as §1
Only petals (about 70 g) were collected from about ten marketed roses (variety; Rosa gybrida CV. Wendy), added with acetone (500 ml) cooled to −20° C., and pulverized by a homogenizer while cooled with dry ice. The obtained pulverized mixture was filtered through a Buchner funnel put with a No. 2 filter paper sheet, and sufficiently washed with acetone at −20° C. The obtained filtrate was dried in a desiccator under reduced pressure (room temperature, 3 hours) to obtain 6 g of crude enzyme powder. This powder was added to 100 mM sodium phosphate buffer (pH 7.0, 120 ml) and stirred at 4° C. for 3 hours, and the insoluble matter was removed by centrifugation. The filtrate was subjected to ultrafiltration utilizing an ultrafiltration membrane PM-10 (Amicon) to finally afford 15 ml of crude enzyme solution.
In the same manner as in Example 3, the inhibition activity of the CPEM-β-Glc obtained in Example 2 for the pNP-β-Glc activity of the above crude enzyme solution was measured. […]

[5] = tested on: chrysanthemum cut flowers; experiment: Aromatic substance formation inhibition effect in cut flowers (organoleptic test); type: in vivo; details: 0.13% (w/v, 5 mM) aqueous solution
Protocol: (§2) A 0.13% (w/v, 5 mM) aqueous solution of the CPEM-β-Glc obtained in Example 2 was prepared. The obtained aqueous solution (300 ml) was introduced into an Erlenmeyer flask, and lily, chrysanthemum, and gypsophila were put into it one for each. On the other hand, as control, the flowers were similarly put into water without the CPEM-β-Glc. After 1, 2 and 4 days, organoleptic test was performed by ten expert panelists as for the aroma emitted from these cut flowers.

gypsophila cut flowers = experiment: as above; type: in vivo; details: 0.13% (w/v, 5 mM) aqueous solution
Protocol: as §2

lily cut flowers = experiment: as above; type: in vivo; details: 0.13% (w/v, 5 mM) aqueous solution
Protocol: as §2

[6] = cycloalkyl glucoside 1 mM (table title), no inhibitor = 1.00, pH 5.0, 40° C., 10 minutes

SMILES | Activity ratio (pNP-β-glucosidase activity) [1] | Activity ratio (pNP-β-glucosidase activity) ([2]; A. niger enzyme) | Activity ratio (pNP-β-glucosidase activity) [3, 6] | Inhibition of β-glucosidase (in words) ([1]; almond enzyme, inhibitor concentration of 1.25 mM) | Difference in 50% inhibition concentration, almond versus A. niger and T. viride β-glucosidases ([1]; ratio of 50% inhibition concentrations) | IC50 ([1]; β-glucosidase derived from almond, concentration varied from 0 to 5 mM, read-out: 50% inhibition concentration) [µM] | activity at 1000 µM ([2]; 10 min, pH 5, read-out: Activity ratio (pNP-β-glucosidase activity)) [%] | Inhibition of β-glucosidase (in words) ([2]; A. niger enzyme, inhibitor concentration of 1.25 mM) | activity at 1000 µM ([3]; 10 min, cycloalkyl glucoside 1 mM (table title), no inhibitor = 1.00, pH 5.0, 40° C., 10 minutes, read-out: Activity ratio (pNP-β-glucosidase activity)) [%] | Inhibition of β-glucosidase (in words) ([3]; inhibitor concentration of 1.25 mM) | Inhibition activity for pNP-β-Glc activity of rose crude enzyme ([4]; at 3 mM) | Inhibition activity for pNP-β-Glc activity of rose crude enzyme ([4]; at 4 mM) | Inhibition activity for pNP-β-Glc activity of rose crude enzyme ([4]; at 5 mM) | Freshness of the cut flowers ([5]; added versus not added) | Aroma emitted from cut flowers (organoleptic test, ten expert panelists) ([5]; after one day, versus water) | Freshness of the cut flowers (gypsophila cut flowers; added versus not added) | Aroma emitted from cut flowers (organoleptic test, ten expert panelists) (gypsophila cut flowers; after one day, versus water) | Freshness of the cut flowers (lily cut flowers; added versus not added) | Aroma emitted from cut flowers (organoleptic test, ten expert panelists) (lily cut flowers; after one day, versus water)
OC[C@H]1O[C@@H](OCC2CC2)[C@H](O)[C@@H](O)[C@@H]1O [CPAM-β-Glc, cyclopropylmethyl-β-glucoside] | 0.86 | 0.94 | 1.01 |  |  |  |  |  |  |  |  |  |  |  |  |  |  |  | 
OC[C@H]1O[C@@H](OC2CCCC2)[C@H](O)[C@@H](O)[C@@H]1O [CPE-β-Glc, cyclopentyl-β-glucoside] | 0.90 | 0.92 | 1.06 |  |  |  |  |  |  |  |  |  |  |  |  |  |  |  | 
OCC1OC(OCC2CCCC2)C(O)C(O)C1O (stereo not drawn) [CPEM-β-Glc, cyclopentylmethyl-β-glucoside] | 0.27 |  |  | strongly inhibited | about 70 times | 170 | 99 | relatively weak inhibition | 105 | no inhibition | about 50% | about 70% | about 90% | No difference | distinctly reduced | No difference | distinctly reduced | No difference | distinctly reduced
